HELM strings list units from the 5' end as sugar, base in round brackets, then linkage (d deoxyribose, r ribose, m 2'-O-methyl, p phosphodiester). Strings are as the collection lists them; they lack the last nucleoside at the 3' end of the tested compound. [moe] = 2'-O-(2-methoxyethyl) (MOE); [sp] = phosphorothioate linkage; [m5C] = 5-methylcytosine
Biological target: ATXN3
Assay: mouse, dose not given
Settings: ASO

Substance | 3 h FOB score [score 0-7]
RNA1{[moe](A)[sp].[moe](A)p.[moe](T)p.[moe](G)p.[moe]([m5C])[sp].d(T)[sp].d([m5C])[sp].d(A)[sp].d(T)[sp].d(T)[sp].d(T)[sp].d(A)[sp].d(T)[sp].d(T)[sp].d([m5C])[sp].[moe](T)p.[moe]([m5C])p.[moe](A)[sp].[moe](A)}$$$$ (last 3' nucleoside missing) | 2
RNA1{[moe](A)[sp].[moe](A)p.[moe](T)p.[moe](G)p.[moe]([m5C])p.d(A)[sp].d(T)[sp].d(A)[sp].d(T)[sp].d(T)[sp].d(G)[sp].d(G)[sp].d(T)[sp].d(T)[sp].d(T)[sp].[moe](T)p.[moe]([m5C])p.[moe](T)[sp].[moe]([m5C])}$$$$ (last 3' nucleoside missing) | 4
RNA1{[moe](A)[sp].[moe](A)p.[moe](T)p.[moe](T)p.[moe]([m5C])[sp].d(T)[sp].d(T)[sp].d(G)[sp].d([m5C])[sp].d(T)[sp].d(T)[sp].d([m5C])[sp].d(A)[sp].d(A)[sp].d([m5C])[sp].[moe]([m5C])p.[moe](A)p.[moe](T)[sp].[moe]([m5C])}$$$$ (last 3' nucleoside missing) | 1.25
RNA1{[moe](A)[sp].[moe](G)[sp].[moe]([m5C])p.[moe]([m5C])p.[moe](A)[sp].d(A)[sp].d(T)[sp].d(A)[sp].d(T)[sp].d(T)[sp].d(T)[sp].d(A)[sp].d(T)[sp].d(A)[sp].d(G)[sp].[moe](G)p.[moe](T)p.[moe](G)[sp].[moe]([m5C])}$$$$ (last 3' nucleoside missing) | 1
RNA1{[moe](A)[sp].[moe](G)p.[moe](T)p.[moe](G)p.[moe]([m5C])[sp].d(T)[sp].d(A)[sp].d(T)[sp].d(A)[sp].d(A)[sp].d(T)[sp].d(T)[sp].d([m5C])[sp].d(T)[sp].d(T)[sp].[moe](G)p.[moe]([m5C])p.[moe](T)[sp].[moe](T)}$$$$ (last 3' nucleoside missing) | 0.25
RNA1{[moe](A)[sp].[moe](G)p.[moe](T)p.[moe](G)p.[moe]([m5C])[sp].d(T)[sp].d(U)[sp].d(T)[sp].d(T)[sp].d([m5C])[sp].d(A)[sp].d(T)[sp].d(A)[sp].d([m5C])[sp].d([m5C])[sp].[moe](A)p.[moe](G)p.[moe](G)[sp].[moe](T)}$$$$ (last 3' nucleoside missing) | 0.75
RNA1{[moe](A)[sp].[moe](G)p.[moe](T)p.[moe](G)p.[moe]([m5C])p.[moe](T)p.d(T)[sp].d(T)[sp].d(T)[sp].d([m5C])[sp].d(A)[sp].d(T)[sp].d(A)[sp].d([m5C])[sp].d([m5C])[sp].d(A)[sp].[moe](G)p.[moe](G)[sp].[moe](T)}$$$$ (last 3' nucleoside missing) | 1
RNA1{[moe](A)[sp].[moe](G)p.[moe]([m5C])p.[moe]([m5C])p.[moe](A)[sp].d(A)[sp].d(T)[sp].d(A)[sp].d(T)[sp].d(T)[sp].d(T)[sp].d(A)[sp].d(T)[sp].d(A)[sp].d(G)[sp].[moe](G)p.[moe](T)p.[moe](G)[sp].[moe]([m5C])}$$$$ (last 3' nucleoside missing) | 1
RNA1{[moe](A)[sp].[moe](G)p.[moe]([m5C])p.[moe]([m5C])p.[moe](A)p.d(A)[sp].d(T)[sp].d(A)[sp].d(T)[sp].d(T)[sp].d(T)[sp].d(A)[sp].d(T)[sp].d(A)[sp].d(G)[sp].[moe](G)p.[moe](T)p.[moe](G)[sp].[moe]([m5C])}$$$$ (last 3' nucleoside missing) | 1
RNA1{[moe](A)[sp].[moe](T)p.[moe](G)[sp].[moe](T)[sp].[moe](T)[sp].d(A)[sp].d(A)[sp].d(T)[sp].d(A)[sp].d([m5C])[sp].d(T)[sp].d(T)[sp].d(T)[sp].d(T)[sp].d(T)[sp].[moe]([m5C])[sp].[moe]([m5C])p.[moe](A)[sp].[moe](G)}$$$$ (last 3' nucleoside missing) | 0.25
RNA1{[moe](A)[sp].[moe](T)p.[moe](G)p.[moe](A)p.[moe](G)[sp].d([m5C])[sp].d([m5C])[sp].d(A)[sp].d(A)[sp].d(T)[sp].d(A)[sp].d(T)[sp].d(T)[sp].d(T)[sp].d(A)[sp].[moe](T)p.[moe](A)p.[moe](G)[sp].[moe](G)}$$$$ (last 3' nucleoside missing) | 1
RNA1{[moe](A)[sp].[moe](T)p.[moe](G)p.[moe](T)p.[moe](T)[sp].d([m5C])[sp].d(A)[sp].d(T)[sp].d(A)[sp].d(T)[sp].d([m5C])[sp].d([m5C])[sp].d(T)[sp].d(T)[sp].d(T)[sp].[moe](A)p.[moe](A)p.[moe]([m5C])[sp].[moe]([m5C])}$$$$ (last 3' nucleoside missing) | 0
RNA1{[moe](A)[sp].[moe](T)p.[moe](G)p.[moe](T)p.[moe](T)p.[moe]([m5C])p.d(A)[sp].d(T)[sp].d(A)[sp].d(T)[sp].d([m5C])[sp].d([m5C])[sp].d(T)[sp].d(T)[sp].d(T)[sp].d(A)[sp].[moe](A)p.[moe]([m5C])[sp].[moe]([m5C])}$$$$ (last 3' nucleoside missing) | 0
RNA1{[moe](A)[sp].[moe](T)p.[moe](G)p.[moe]([m5C])p.[moe](T)[sp].d([m5C])[sp].d(A)[sp].d(T)[sp].d(T)[sp].d(T)[sp].d(A)[sp].d(T)[sp].d(T)[sp].d([m5C])[sp].d(T)[sp].[moe]([m5C])p.[moe](A)p.[moe](A)[sp].[moe](G)}$$$$ (last 3' nucleoside missing) | 0
RNA1{[moe](A)[sp].[moe](T)p.[moe](T)p.[moe](T)p.[moe](T)[sp].d([m5C])[sp].d(A)[sp].d(T)[sp].d(G)[sp].d(T)[sp].d(T)[sp].d([m5C])[sp].d([m5C])[sp].d(A)[sp].d(G)[sp].[moe](A)p.[moe](T)p.[moe]([m5C])[sp].[moe](A)}$$$$ (last 3' nucleoside missing) | 1
RNA1{[moe](A)[sp].[moe](T)p.[moe](T)p.[moe]([m5C])p.[moe](T)[sp].d(T)[sp].d(G)[sp].d([m5C])[sp].d(T)[sp].d(T)[sp].d([m5C])[sp].d(A)[sp].d(A)[sp].d([m5C])[sp].d([m5C])[sp].[moe](A)p.[moe](T)p.[moe]([m5C])[sp].[moe](A)}$$$$ (last 3' nucleoside missing) | 0.375
RNA1{[moe](A)[sp].[moe](T)p.[moe]([m5C])p.[moe](A)p.[moe]([m5C])[sp].d(T)[sp].d(G)[sp].d([m5C])[sp].d(A)[sp].d([m5C])[sp].d(A)[sp].d([m5C])[sp].d(T)[sp].d(T)[sp].d(T)[sp].[moe]([m5C])p.[moe]([m5C])p.[moe](T)[sp].[moe]([m5C])}$$$$ (last 3' nucleoside missing) | 0
RNA1{[moe](A)[sp].[moe]([m5C])p.[moe](T)p.[moe](A)p.[moe]([m5C])[sp].d([m5C])[sp].d(T)[sp].d(T)[sp].d(G)[sp].d([m5C])[sp].d(A)[sp].d(T)[sp].d(A)[sp].d([m5C])[sp].d(T)[sp].[moe](T)p.[moe](A)p.[moe](G)[sp].[moe]([m5C])}$$$$ (last 3' nucleoside missing) | 1.12
